Experimental findings from US11266686B2, “Metal complexes and methods of treatment” (PROCYPRA THERAPEUTICS LLC, priority 2013, dated 2022) are described below.

Molecules are shown by their SMILES.

The data set is described as follows: Pharmacokinetics in mice after oral administration, plasma and brain by LC/MS/MS. As to conditions: 30 mg/kg CuXTSM API oral; for Brain AUC0-24h / Brain AUC0-inf / Brain Cmax / Brain Tmax / Brain t½ (number of time points): mouse brain; for Brain t½ (number of time points) / Plasma t½ (number of time points): bracket = number of time points; for Plasma Ke / Plasma MRT / Plasma AUC0-24h / Plasma AUC0-inf / Plasma Cmax / Plasma Tmax / Plasma t½ (number of time points): mouse plasma; for Plasma AUC0-24h / Plasma AUC0-inf / Plasma Cmax / Plasma Tmax: CuATSM in SSV, NCDs in water. The protocol: CuATSM was suspended in “Standard Suspension Vehicle” (SSV), consisting of 0.9% (w/v) NaCl, 0.5% (w/v) sodium carboxymethylcellulose, 0.5% (v/v) benzyl alcohol, and 0.4% (v/v) Tween 80 in deionized water. All other test compounds were suspended in sterile water. Samples were prepared by adding one of the compounds to the liquid vehicle (water or SSV) in a vial and then vortexing the mixture for 3 min with a stir bar inside. If the powdered sample was not completely wetted or not completely suspended, the sample was vortexed for another minute. If wetting was still incomplete, the vial was sonicated until a fully wetted suspension was obtained. Between doses, the sample was stirred on medium speed and then vortexed for an additional 20 s immediately before the next dose was removed from the vial. All dosing was completed from a single preparation of the suspension within 60 min of adding the compound to water or SSV.
Mice were deprived of pelleted food overnight, during which time 10% dextrose, as Dextroput, was provided in tap water, after which the test items were administrated orally by gavage in water or SSV. […] The blood samples were kept on ice after sampling and centrifuged at +4° C., 1800×g for 5 min to prepare plasma. Plasma samples were extracted and transferred into pre-labelled Eppendorf test tubes (50 μl exact in one vial, and the remaining in a second vial) and frozen at −20° C. The samples were transported on dry ice to the analysis site. Following blood sampling, mice were euthanized by cervical dislocation, and then brains were collected through opened skulls. The brains were weighed and placed in test tubes and placed on water ice. Phosphate-buffered saline (PBS, pH 7.4), 4 ml per 1 g of brain tissue, was added to the test tube and brains were homogenized by using Ultra-Turrax T25 homogenizer/S25N-10G (Setting 2, 9500 rpm, approximately 10 s). The homogenate was frozen at −20° C. immediately after homogenization. The samples were transported on dry ice to the analysis site.
Dosed mice were studied in triplicate for each of the seven time points, totaling 21 mice dosed for each studied compound. Plasma samples and brain homogenates from four untreated animals were also obtained. The plasma samples were thawed at room temperature (RT), mixed with 2-fold volume of acetonitrile, shaken and centrifuged for 10 min at 13 000×g (Heraeus Pico 17 centrifuge), after which supernatants were transferred into glass vials. The brain homogenate samples were mixed with 2-fold volume of acetonitrile:methanol, shaken, ultrasonicated for 20 min, and centrifuged for 10 min at 13 000×g (Heraeus Pico 17 centrifuge), after which supernatants were transferred into glass vials. […] Quality control (QC) samples were prepared for concentrations 10, 100 and 1000 ng/ml in plasma or brain homogenates.
Elution was with gradient of 0.5% formic acid/acetonitrile (99:1) increased step-wise to (5:95).
The pharmacokinetic parameters for study compounds in plasma and brain were calculated using standard non-compartmental methods. The elimination phase half-life (t½) was calculated by least-squares regression analysis of the terminal linear part of the log concentration-time curve. […] The maximum concentration (Cmax) and the time to Cmax (Tmax) were derived directly from the concentration data. Mean Residence Time, MRT, and elimination rate constant, Ke, were also calculated from the concentration vs. time data of plasma samples.

Turning to `CNC1=NN=CC(C)=NN=C(NC)[S][Cu][S]1.O=C1NS(=O)(=O)c2ccccc21.O=C1NS(=O)(=O)c2ccccc21` [CuPTSM:saccharin (1:2)], the “Brain AUC0-24h” value is 62832 ng·min/g, the “Brain AUC0-inf” value was 72025 ng·min/g, the “Brain Cmax” value is given as 189 ng/g and the “Brain Tmax” value is recorded as 30 min. Besides, the “Brain t½ (number of time points)” value was 487 (2) min, the “Plasma Ke” value amounted to 0.0016 min⁻¹, the “Plasma MRT” value amounted to 474 min and the “Plasma AUC0-24h” value turned out to be 60004 ng·min/mL. Also, the “Plasma AUC0-inf” value worked out at 68278 ng·min/mL, the “Plasma Cmax” value is given as 91.5 ng/mL, the “Plasma Tmax” value is given as 60 min and the “Plasma t½ (number of time points)” value was 439 (2) min. In addition, the “Brain:plasma-ratio (Cmax-based)” value (mouse) is 2.1.
Regarding `CNC1=NN=C(C)C(C)=NN=C(NC)[S][Cu][S]1.O=C(O)CC(O)(CC(=O)O)C(=O)O` [CuATSM:citric acid (1:1)], the “Brain AUC0-24h” value came out at 15435 ng·min/g, the “Brain AUC0-inf” value was 15563 ng·min/g, the “Brain Cmax” value is 77.0 ng/g and the “Brain Tmax” value was found to be 60 min. In addition, the “Brain t½ (number of time points)” value is reported as 218 (4) min, the “Plasma Ke” value turned out to be 0.0034 min⁻¹, the “Plasma MRT” value is given as 315 min and the “Plasma AUC0-24h” value turned out to be 8292 ng·min/mL. Further, the “Plasma AUC0-inf” value was 8366 ng·min/mL, the “Plasma Cmax” value is recorded as 14.5 ng/mL, the “Plasma Tmax” value was found to be 60 min and the “Plasma t½ (number of time points)” value is 204 (3) min.
